Values quoted from earlier work as cited in patent US20240424053A1, “METHODS AND COMPOSITIONS FOR PROVIDING MYOCARDIAL PROTECTION AND TREATING MYOCARDIAL STRESS AND FIBROSIS” (Tufts Medical Center, Inc., priority 2021, published 2024).

Molecular target: T1, Xa (Homo sapiens, UniProt P00742)
T1 construct: host or cells: HF patients
Details: in vivo; cited from earlier work

T1 sequence (P00742 235-488 limits assumed): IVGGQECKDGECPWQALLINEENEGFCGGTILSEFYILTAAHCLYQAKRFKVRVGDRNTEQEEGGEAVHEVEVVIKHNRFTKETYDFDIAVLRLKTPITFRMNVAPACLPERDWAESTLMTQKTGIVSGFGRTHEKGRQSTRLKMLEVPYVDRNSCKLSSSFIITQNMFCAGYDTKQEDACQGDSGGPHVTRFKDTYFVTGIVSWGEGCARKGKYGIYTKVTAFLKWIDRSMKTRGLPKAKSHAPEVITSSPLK
T1 sequence (P00742 41-179 partner limits assumed): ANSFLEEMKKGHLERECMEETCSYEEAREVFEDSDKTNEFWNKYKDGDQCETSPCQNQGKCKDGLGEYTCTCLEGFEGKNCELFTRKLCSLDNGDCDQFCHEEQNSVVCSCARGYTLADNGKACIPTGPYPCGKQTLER

In the case of O=C(NC[C@H]1CN(c2ccc(N3CCOCC3=O)cc2)C(=O)O1)c1ccc(Cl)s1 [rivaroxaban], the “clinical benefit in HF patients” value is listed as “no clear benefit”.
